The values that follow come from ChEMBL document CHEMBL1147306, “Studies on inhibitors of skin tumor promotion, VI. Inhibitory effects of quinones on Epstein-Barr virus activation” (J Nat Prod, 1989).

What all share (assay type): cell-based
Data set [1] concerns Raji. Kind of data set: Inhibition of TPA-induced EBV-early antigen activation in human Raji cells at 10 molar ratio after 48 hrs by indirect immunofluorescence technique relative to TPA. To be noted: human gammaherpesvirus 4.
The test system of data set [2] is Raji. Kind of data set: Inhibition of TPA-induced EBV-early antigen activation in human Raji cells at 500 molar ratio after 48 hrs by indirect immunofluorescence technique relative to TPA. The settings on record: human gammaherpesvirus 4.
The nature of data set [3]: Cytotoxicity against human Raji cells assessed as cell viability at 100 molar ratio. To be noted: read-out: Activity.
The nature of data set [4]: Cytotoxicity against human Raji cells assessed as cell viability at 1000 molar ratio. To be noted: read-out: Activity.
The nature of data set [5]: Cytotoxicity against human Raji cells assessed as cell viability at 10 molar ratio. To be noted: read-out: Activity.
Data set [6] deals with Raji. The data set is described as follows: Inhibition of TPA-induced EBV-early antigen activation in human Raji cells at 100 molar ratio after 48 hrs by indirect immunofluorescence technique relative to TPA. The settings on record: human gammaherpesvirus 4.
Data set [7] in a line: Cytotoxicity against human Raji cells assessed as cell viability at 500 molar ratio. To be noted: read-out: Activity.

As for `COc1c(CO)c(O)cc2c1C(=O)c1cccc(O)c1C2=O` [JUZUNOL], the EBV-EA activation % of TPA control with Raji [1], with Raji [2] and in the data set with Raji [6] was 100% in each case. Besides, the viability at 100 molar ratio in data set [3] was more than 80%. The viability at 1000 molar ratio in data set [4] was more than 80%. Also, in data set [5], the viability at 10 molar ratio is more than 80%. The viability at 500 molar ratio in data set [7] was more than 80%.

As for `CC1C=CNC2=C1C(=O)c1c(O)ccc(O)c1C2=O` (stereo not given), the results for the EBV-EA activation % of TPA control with Raji [1], in the data set on Raji [2] and in the data set on Raji [6] were 100%, 20.4% and 100%, respectively. The viability at 100 molar ratio in data set [3] is more than 80%. For the same molecule, the viability at 1000 molar ratio in data set [4] was found to be 10%. Moreover, the viability at 10 molar ratio in data set [5] is more than 80%. In addition, the viability at 500 molar ratio in data set [7] turned out to be 70%.

Turning to `CC1(c2cc3c(o2)C(=O)c2ccccc2C3=O)OCCO1`, the EBV-EA activation % of TPA control in the data set on Raji [1] was 32.4%; in the data set on Raji [2], 0%; in the data set with Raji [6], 0%. Moreover, the viability at 100 molar ratio in data set [3] is 10%. Further, the viability at 1000 molar ratio in data set [4] amounted to 0%. Further, the viability at 10 molar ratio in data set [5] worked out at 60%. Further, the viability at 500 molar ratio in data set [7] was determined as 10%.

Take `CC1=CC(=O)c2ccccc2C1=O` [MENADIONE]: the EBV-EA activation % of TPA control in the data set with Raji [1] amounted to 89.4%; with Raji [2], 0%; with Raji [6], 65.7%. In addition, the viability at 100 molar ratio in data set [3] stood at 70%. For the same molecule, the viability at 1000 molar ratio in data set [4] was found to be 0%. The viability at 10 molar ratio in data set [5] was more than 80%. For the same molecule, in data set [7], the viability at 500 molar ratio was 0%.

As to `O=C1c2cccc(O)c2C(=O)c2cccc(O)c21` [ANTHRARUFIN], the EBV-EA activation % of TPA control in the data set on Raji [1] worked out at 100%; in the data set on Raji [2], 70.1%; in the data set on Raji [6], 92.3%. Moreover, the viability at 100 molar ratio in data set [3] is more than 80%. The viability at 1000 molar ratio in data set [4] stood at 70%. Also, in data set [5], the viability at 10 molar ratio is more than 80%. Further, in data set [7], the viability at 500 molar ratio was more than 80%.

With `CN(C)C1=CC(=O)c2c(O)ccc(O)c2C1=O`, the figures for the EBV-EA activation % of TPA control with Raji [1], in the data set with Raji [2] and in the data set with Raji [6] were 100%, 28.2% and 87.2%, respectively. Besides, the viability at 100 molar ratio in data set [3] is more than 80%. Besides, the viability at 1000 molar ratio in data set [4] worked out at 50%. Further, the viability at 10 molar ratio in data set [5] was more than 80%. Moreover, the viability at 500 molar ratio in data set [7] was more than 80%.

`O=C1C=CC(=O)c2ccccc21` [NAPHTHOQUINONE]: the results for the EBV-EA activation % of TPA control with Raji [1], in the data set on Raji [2] and with Raji [6] were 100%, 0% and 37.5%, respectively. Besides, in data set [3], the viability at 100 molar ratio worked out at 50%. For the same molecule, in data set [4], the viability at 1000 molar ratio was 20%. Further, the viability at 10 molar ratio in data set [5] was more than 80%. Further, in data set [7], the viability at 500 molar ratio worked out at 50%.

On to `COc1ccc(OC)c2c1C(=O)c1nccc(C)c1C2=O`, for which the EBV-EA activation % of TPA control in the data set with Raji [1], in the data set with Raji [2] and with Raji [6] was 100% in each case. Moreover, in data set [3], the viability at 100 molar ratio was more than 80%. In data set [4], the viability at 1000 molar ratio stood at 70%. The viability at 10 molar ratio in data set [5] was more than 80%. The viability at 500 molar ratio in data set [7] was more than 80%.

On to `COCc1c(O)cc2c(c1O)C(=O)c1ccccc1C2=O`, for which the figures for the EBV-EA activation % of TPA control in the data set with Raji [1], with Raji [2] and in the data set on Raji [6] were 100%, 77% and 80.4%, respectively. In addition, the viability at 100 molar ratio in data set [3] is more than 80%. Also, the viability at 1000 molar ratio in data set [4] is 60%. In addition, the viability at 10 molar ratio in data set [5] is more than 80%. In data set [7], the viability at 500 molar ratio was more than 80%.

With `Cc1cnc2c(c1)C(=O)c1c(O)ccc(O)c1C2=O`, the EBV-EA activation % of TPA control worked out at 100% in the data set with Raji [1], 16.8% in the data set on Raji [2] and 82.6% in the data set on Raji [6]. Moreover, in data set [3], the viability at 100 molar ratio was more than 80%. Further, the viability at 1000 molar ratio in data set [4] was determined as 40%. Besides, the viability at 10 molar ratio in data set [5] is more than 80%. In addition, the viability at 500 molar ratio in data set [7] turned out to be 50%.
